Assay results reported in ChEMBL document CHEMBL4265868, “N-alkanol-N-cyclohexanol amine aryl esters: Multidrug resistance (MDR) reversing agents with high potency and efficacy” (Eur J Med Chem, 2017).
Activity calls are given as the source filed them. The rule behind the calls is not given here.

What was measured:
Homo sapiens [1] = species on record: Homo sapiens; test: Inhibition of P-gp in human K562/DOX cells assessed as potentiation of doxorubicin-induced cytotoxicity by measuring reduction in doxorubicin IC50 at 0.1 uM incubated for 72 hrs by MTT assay relative to control; type: cell-based
Homo sapiens [2] = species on record: Homo sapiens; test: Inhibition of P-gp in human K562/DOX cells assessed as potentiation of doxorubicin-induced cytotoxicity by measuring reduction in doxorubicin IC50 at 1 uM incubated for 72 hrs by MTT assay relative to control; type: cell-based
[3] = Stability in presence of bovine serum and human K562/DOX cells assessed as drug degradation incubated for 30 to 120 mins by LC-MS/MS method; type: ADME; details: K562/DOX cells with bovine serum, read-out: Drug degradation
Homo sapiens [4] = species on record: Homo sapiens; test: Inhibition of P-gp in human K562/DOX cells assessed as potentiation of doxorubicin-induced cytotoxicity by measuring reduction in doxorubicin IC50 at 3 uM incubated for 72 hrs by MTT assay relative to control; type: cell-based
[5] = Toxicity in human K562/Dox cells assessed as reduction in cell viability at 0.1 to 3 uM incubated for 72 hrs by MTT assay; type: cell-based
K562 [6] = test: Effect on rhodamine-123 efflux in human K562 cells at 1 uM incubated for 10 mins hrs by flow cytometry; type: ADME, cell-based; details: k562, 10 min
[7] = Half life in human plasma by LC-MS/MS method; type: ADME, cell-free
K562 [8] = test: Inhibition of P-gp in human K562/DOX cells assessed as increase in rhodamine-123 […] in human K562 cells at 1 uM incubated for 10 mins hrs by flow cytometry relative to untreated control; type: cell-based
Homo sapiens [9] = species on record: Homo sapiens
Description: Inhibition of P-gp in human K562/DOX cells assessed as drug level causing 50% increase in nuclear pirarubicin concentration incubated for 30 mins by spectroflurometry

[10] = Stability in PBS buffer assessed as drug degradation incubated for 30 to 120 mins by LC-MS/MS method; type: physicochemical; details: read-out: Drug degradation
K562 [11] = test: Potentiation of doxorubicin-induced cytotoxicity in human K562 cells assessed as reduction in cell viability at 0.1 to 3 uM incubated for 72 hrs by MTT assay; type: cell-based; details: k562, 72 h
K562 [12] = test: Toxicity in human K562 cells assessed as reduction in cell viability at 0.1 to 3 uM incubated for 72 hrs by MTT assay; type: cell-based; details: k562, 72 h
[13] = Stability in human plasma assessed as parent compound remaining incubated for 120 mins by LC-MS/MS method; type: ADME, cell-free; details: read-out: Stability

SMILES | Ratio IC50 (Homo sapiens [1]) | Ratio IC50 (Homo sapiens [2]) | metabolised [3] [%] | Ratio IC50 (Homo sapiens [4]) | Activity [5] | Activity (K562 [6]) | half-life [7] [h] | fold change (FC) (K562 [8]) | I0.5 (Homo sapiens [9]) [µM] | degraded [10] [%] | Activity (K562 [11]) | Activity (K562 [12]) | remaining at 2 h [13] [%] | inhibition (K562 [8])
COc1cc(/C=C/C(=O)O[C@H]2CC[C@H](N(C)CCCCCOC(=O)c3cc(OC)c(OC)c(OC)c3)CC2)cc(OC)c1OC | 2.3 | 32.8 | < 5 | 57.9 | Non-Toxic | Non-Toxic | ≥ 4 | 80 | 0.13 | < 5 | Non-Toxic | Non-Toxic |  | 
COc1cc(/C=C/C(=O)OCCCCCN(C)[C@H]2CC[C@@H](OC(=O)c3cc(OC)c(OC)c(OC)c3)CC2)cc(OC)c1OC |  |  | < 5 |  |  |  | ≥ 4 |  | 0.51 | < 5 |  |  |  | 
COc1cc(/C=C/C(=O)OCCCCCN(C)[C@H]2CC[C@H](OC(=O)c3cc(OC)c(OC)c(OC)c3)CC2)cc(OC)c1OC |  |  | < 5 |  |  |  | ≥ 4 |  | 0.1 | < 5 |  |  |  | 
CCOC(=O)C(C)c1cccc(C(=O)c2ccccc2)c1 (stereo not given) |  |  |  |  |  |  | < 2 |  |  |  |  |  |  | 
COc1cc(/C=C/C(=O)OCCCN(C)[C@H]2CC[C@H](OC(=O)c3cc(OC)c(OC)c(OC)c3)CC2)cc(OC)c1OC |  |  | < 5 |  |  |  | ≤ 2 |  | 0.08 | < 5 |  |  |  | 
COc1cc(/C=C/C(=O)O[C@H]2CC[C@H](N(C)CCCCOC(=O)c3cc(OC)c(OC)c(OC)c3)CC2)cc(OC)c1OC | 3.3 | 12.9 | < 5 | 50 | Non-Toxic | Non-Toxic | ≤ 2 | 60 | 0.06 | < 5 | Non-Toxic | Non-Toxic |  | 
COc1cc(/C=C/C(=O)OCCCN(C)[C@H]2CC[C@@H](OC(=O)c3cc(OC)c(OC)c(OC)c3)CC2)cc(OC)c1OC |  |  | < 5 |  |  |  | 2 to 4 |  | 0.25 | < 5 |  |  | 75 | 
COc1cc(/C=C/C(=O)O[C@H]2CC[C@@H](N(C)CCCCCOC(=O)c3cc(OC)c(OC)c(OC)c3)CC2)cc(OC)c1OC | 1.6 | 5.5 | < 5 | 14.7 | Non-Toxic | Non-Toxic | ≥ 4 | 10 to 80 | 0.09 | < 5 | Non-Toxic | Non-Toxic |  | 
COc1cc2c(cc1OC)CN(CCc1ccc(NC(=O)c3cc(OC)c(OC)cc3NC(=O)c3cnc4ccccc4c3)cc1)CC2 |  | 29.7 |  |  |  |  |  |  |  |  |  |  |  | Active
COc1cc(/C=C/C(=O)O[C@H]2CC[C@@H](N(C)CCCOC(=O)c3cc(OC)c(OC)c(OC)c3)CC2)cc(OC)c1OC |  |  | < 5 |  |  |  | ≥ 4 |  | 0.47 | < 5 |  |  |  | 
COc1cc(/C=C/C(=O)OCCCCN(C)[C@H]2CC[C@H](OC(=O)c3cc(OC)c(OC)c(OC)c3)CC2)cc(OC)c1OC |  |  | < 5 |  |  |  | 2 to 4 |  | 0.08 | < 5 |  |  | 50 | 
COc1cc(/C=C/C(=O)OCCCCN(C)[C@H]2CC[C@@H](OC(=O)c3cc(OC)c(OC)c(OC)c3)CC2)cc(OC)c1OC |  |  | < 5 |  |  |  | ≥ 4 |  | 0.35 | < 5 |  |  |  | 
COc1cc(/C=C/C(=O)O[C@H]2CC[C@H](N(C)CCCOC(=O)c3cc(OC)c(OC)c(OC)c3)CC2)cc(OC)c1OC |  |  | < 5 |  |  |  | ≤ 1 |  | 0.07 | < 5 |  |  |  | 
COc1cc(/C=C/C(=O)O[C@H]2CC[C@@H](N(C)CCCCOC(=O)c3cc(OC)c(OC)c(OC)c3)CC2)cc(OC)c1OC | 2.8 | 4.6 | < 5 | 34.9 | Non-Toxic | Non-Toxic | ≥ 4 | 10 to 80 | 0.29 | < 5 | Non-Toxic | Non-Toxic |  | 
